In experiment [1] the target is T1, recombinant human 11beta-HSD1 (Homo sapiens, UniProt P28845).
T1 construct: Full length recombinant human 11β-HSD1 cDNAs and the cDNA encoding human 11β-HSD2 were expressed stably in HEK 293 EBNA cells; made in house
The experiment can be described thus: 11β-HSD1 SPA enzyme assay (in vitro inhibition, human microsomes, 3H-cortisone). The experiment is classed as biochemical. Particulars: microsomes from HEK 293 EBNA cells, 40 nM 3H-cortisone, 4 hrs room temperature. On the procedure: The in vitro inhibition of recombinant human 11beta-HSD1 was determined as follows.
[^3H]-Cortisone with a specific radioactivity of 50 Ci/mmol (ART 743, Lot: 050906) was from American Radiolabeled Chemicals, Inc. (St Louis, Mo.); monoclonal ab to Cortisol (P01-9294M-P, Lot: L-28) was from East Coast Bio., (North Berwick, Me.); Protein A-yttrium silicate, type-1, SPA bead NJ® (RPN-143) was from Amersham LifeSciences, (Piscataway, N.J.); 384 well-Optiplate384® (#6007299) was from PerkinElmer (Boston, Mass.); DPBS, pH 7.4 (14040) is from GIBCO, (Grand Island, N.Y.); carbenoxolone (C4790) is from Sigma, (St Louis, Mo.).
Full length recombinant human 11β-HSD1 cDNAs and the cDNA encoding human 11β-HSD2 were expressed stably in HEK 293 EBNA cells. Cells were grown in DMEM (high glucose) containing MEM non-essential amino acids, L-glutamine, hygromycin B (200 μg/ml), and G-418 (200 μg/ml) in the presence of 10% FBS.
Human 11β-HSD1 transfected HEK 293 EBNA cells were grown to 80% confluency and the cell pellet was quick frozen and stored at −80° C. before purification. Cell paste, 40 g from −80° C. storage, was thawed in water and then 100 ml of homogenization buffer H (0.01 M sodium phosphate pH 6.5 containing 0.25 M sucrose and protease inhibitor cocktail (Roche #1836145 1 tablet per 50 ml) were added to completely thaw the paste. The cell paste suspension was homogenized using a Polytron for 20 seconds to create a homogeneous mixture. Additional buffer H was added to a volume of 300 ml and cells were broken open using a N2-bomb (at 4° C.) in two batches by treating at 500 psi. The extract was centrifuged at 750×g for 30 min. The supernatant was centrifuged at 20,000×g for 30 min. The supernatant was further centrifuged at 105,000×g for 60 min. The 105,000×g pellet was resuspended in buffer H and centrifuged at 105,000×g for 60 min. The microsome pellet was scraped from the bottom of tube and resuspended in 0.01M phosphate buffer, pH 6.5 containing protease inhibitors (Roche #1836145, 1 tablet per 50 ml). Aliquots were stored at −80° C. until needed. The protein concentration was measured by the BioRad method using BSA standard.
Compounds were dissolved in DMSO to obtain 10 mM stock concentrations. From the 10 mM stock, the compounds were diluted in DMSO to achieve the concentrations.
11β-HSD1 SPA Enzyme Assay
11β-HSD1 was assayed by Scintillation Proximity assay in a 384-well Perkin Elmer white plate. The dose response of the compounds was determined using 11 half-log dilutions of compound in DMSO in duplicate. To each well, 0.5 μl of compound dilution in DMSO were added. 15 μl of assay buffer (for blanks) or 15 μl of human microsomes in assay buffer were added next and the plates were incubated for 10 min at room temperature. The final microsomal protein concentration was 1.1 μg/assay. Duplicates were in the same plate one row below the other. 10 μl of ^3H-cortisone (final concentration 40 nM) was added to each well and the plate was spun down to mix and bring down the contents to the bottom of the wells. The plates were incubated at room temperature with gentle shaking for 4 hrs. The reaction was stopped with addition of 10 μl of 10 mM carbenoxolone. Then, 0.5 mg of yttrium silicate SPA beads coupled to anti-cortisol antibody in 20 μl were added to all the wells of plate, which were spun down once more and incubated at room temperature overnight. The plate was read in a TopCount® (1 min/well). Data were uploaded automatically to Tool Set, a Lead Evaluation informatics program for data capture and calculation. Graphs were generated with the Curve Master program.

The test system of experiment [2] is mildly overweight individuals with type 2 diabetes. The conditions noted are these: seven day study, versus placebo; cited from earlier work.

This is an account of results in patent US8546394B2, “Substituted [1,2,4]triazolo[4,3-A]pyrazine 11-beta-hydroxysteroid dehydrogenase inhibitors” (Bristol-Myers Squibb Company, priority 2007, dated 2013).

Where a name gives a salt, the structure may show the parent alone.

T1 sequence (P28845 whole entry): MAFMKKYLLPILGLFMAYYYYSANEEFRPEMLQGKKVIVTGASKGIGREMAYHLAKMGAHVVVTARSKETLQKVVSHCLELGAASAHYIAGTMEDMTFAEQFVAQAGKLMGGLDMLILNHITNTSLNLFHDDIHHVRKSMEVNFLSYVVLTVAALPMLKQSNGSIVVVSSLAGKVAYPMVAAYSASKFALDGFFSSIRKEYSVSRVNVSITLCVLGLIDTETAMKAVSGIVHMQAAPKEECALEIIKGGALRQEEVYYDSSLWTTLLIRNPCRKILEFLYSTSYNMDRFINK

On to `CC(C)(c1ccc(Cl)cc1)c1nnc2c(C3CC3)nccn12` [Example 1, 3-(2-(4-Chlorophenyl)propan-2-yl)-8-cyclopropyl-[1,2,4]triazolo[4,3-a]pyrazine], for which the IC50 – broadly, the concentration needed to halve the response being measured – in experiment [1] turned out to be 1.8 nM.
For the compound `Clc1ccc(C2(c3nnc4nc(C5CC5)ccn34)CC2)cc1` [Example 3, 3-(1-(4-Chlorophenyl)cyclopropyl)-7-cyclopropyl-[1,2,4]triazolo[4,3-a]pyrimidine], in experiment [1], the IC50 is 453 nM.
Same read-out and setting: the same measure for `FC(F)(F)Oc1ccccc1Oc1nccn2c(C3(c4ccc(Cl)cc4)CC3)nnc12` [Example 4, 8-(2-(Trifluoromethoxy)phenoxy)-3-(1-(4-chlorophenyl)cyclopropyl)-[1,2,4]triazolo[4,3-a]pyrazine]: 0.5 nM; for `Clc1ccc(C2(c3nnc4c(C5CC5)nccn34)CCC2)c(Cl)c1` [Example 6]: 0.6 nM; for `CC(C)(Oc1ccccc1)c1nnc2c(Cl)nccn12` [Example 16]: 6030 nM.
`C=CCCc1nccn2c(C3(c4ccc(Cl)cc4)CC3)nnc12` [Example 25]: the IC50 in experiment [1] was determined as 1.3 nM.
On to `OC12CCC(c3nnc4c(Oc5ccccc5Cl)nccn34)(CC1)C2` [Example 27], for which the IC50 in experiment [1] amounted to 336 nM.
In the case of `Clc1ccc(C2(c3nnc4c5sccc5ncn34)CC2)cc1` [Example 28, 3-(1-(4-Chlorophenyl)cyclopropyl)thieno[2,3-e][1,2,4]triazolo[4,3-c]pyrimidine], the IC50 in experiment [1] worked out at 86 nM.
For `Clc1ccc(C2(c3nnc4c5c(cnn34)CCCC5)CC2)cc1` [Example 29, 3-(1-(4-Chlorophenyl)cyclopropyl)-7,8,9,10-tetrahydro-[1,2,4]-triazolo[3,4-a]phthalazine TFA Salt], the IC50 in experiment [1] worked out at 12 nM.
Consider `CC(C)(O)c1nccn2c(C3(c4ccc(Cl)cc4)CC3)nnc12` [Example 35, 2-(3-(1-(4-Chlorophenyl)cyclopropyl)-[1,2,4]triazolo[4,3-a]pyrazin-8-yl)propan-2-ol TFA salt], for which, in experiment [1], the half-maximal inhibitory concentration (IC50) was determined as 7.9 nM.
On the same count and under the same terms, the value for `CC(C)(O)c1ccnn2c(C3(c4ccc(Cl)cc4)CC3)nnc12` [Example 36, 2-(3-(1-(4-Chlorophenyl)cyclopropyl)-[1,2,4]-triazolo[4,3-b]pyridazin-8-yl)propan-2-ol] was 1.2 nM; that for `CC(C)(Oc1ccc(Cl)cc1Cl)c1nnc2c(C3CC3)nccn12` [Example 38] was 1.8 nM.
Still for that read-out and setting: the same measure for `CC(C)(c1ccc(F)cc1)c1nnc2c(Cl)nccn12` [Example 41]: 5130 nM.
As to `CC1(C)[C@@H](OC(=O)CCC(=O)O)CC[C@]2(C)[C@H]3C(=O)C=C4[C@@H]5C[C@@](C)(C(=O)O)CC[C@]5(C)CC[C@@]4(C)[C@]3(C)CC[C@@H]12` [carbenoxolone], the hepatic glucose production result in experiment [2] is recorded as “decrease in hepatic glucose production”.
